Experiment: Toxicity and tissue irritation
Conditions: 1,8-cineole content of the oil

CC12CCC(CC1)C(C)(C)O2 [1,8-cineole]
concentration that produces tissue irritation: above 10%

Reference: patent US6458391B1, “Compositions comprising oleum Melaleuca” (Safe ′N Sound Solutions, Inc., priority 1998, dated 2002)
